{
  "source": "patent US9255110B2",
  "about": "(Hoffmann-La Roche Inc., priority 2010, dated 2016)",
  "note": "pIC50: −log10 of the molar value. Structures can show the parent of a compound that is named as a salt.",
  "data": [
    {"molecular_target": "IRAK-4 (Homo sapiens (Human), UniProt Q9NWZ3)", "sequence (Q9NWZ3 whole entry, species assumed)": "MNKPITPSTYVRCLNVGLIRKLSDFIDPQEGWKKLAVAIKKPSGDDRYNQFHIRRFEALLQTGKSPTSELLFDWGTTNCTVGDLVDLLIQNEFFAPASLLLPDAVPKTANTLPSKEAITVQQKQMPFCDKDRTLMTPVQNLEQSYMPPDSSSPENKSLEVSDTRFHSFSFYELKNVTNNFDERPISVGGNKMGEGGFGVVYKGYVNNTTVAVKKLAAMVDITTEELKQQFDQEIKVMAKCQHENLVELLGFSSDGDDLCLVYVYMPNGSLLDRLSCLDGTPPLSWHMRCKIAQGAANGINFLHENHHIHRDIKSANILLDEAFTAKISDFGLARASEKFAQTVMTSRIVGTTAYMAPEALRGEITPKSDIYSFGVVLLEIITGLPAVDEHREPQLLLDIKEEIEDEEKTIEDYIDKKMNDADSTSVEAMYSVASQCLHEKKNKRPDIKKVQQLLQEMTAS", "test": "In vitro IRAK-4 kinase assay", "type": "biochemical", "conditions": "purified recombinant IRAK-4, 50 uM ATP, 33P peptide phosphorylation", "protocol": "Purified recombinant IRAK-4 protein was incubated with 250 uM synthetic peptide ([…]) in 30 ul of kinase buffer including (20 mM MOPS pH7.2, 25 mM beta glycerol phosphate, 5 mM EGTA, 1 mM sodium orthovanadate, 1 mM DTT, 50 uM ATP, 20 mM MgCl2, 10 uCi γ-^33P, 0.1% BSA) for the indicated time. For purified recombinant IRAK-1 protein kinase assay, 50 uM ATP was used. A 25 ul aliquot of the reaction mixture was transferred on to p81 phosphocellulose squares (Upstate Biotechnology, Lake Placid, N.Y.). The assay squares were washed three times with 0.75% phosphoric acid and once with acetone. Enzyme activity was measured by determining the bound radioactivity by liquid scintillation counting.", "values": [
      {"smiles": "COc1cc2ncccc2cc1NC(=O)c1csc2cnc(N(C)C(C)C)nc12", "note": "[Example 85, 2-(Isopropyl-methyl-amino)-thieno[3,2-d]pyrimidine-7-carboxylic acid (7-methoxy-quinolin-6-yl)-amide]", "pIC50": 6.36},
      {"smiles": "COc1ccc(Cl)cc1NC(=O)c1csc2cnc(N(C)CCN)nc12", "note": "[Example 86, 2-[(2-Amino-ethyl)-methyl-amino]-thieno[3,2-d]pyrimidine-7-carboxylic acid (5-chloro-2-methoxy-phenyl)-amide]", "pIC50": 6.36},
      {"smiles": "O=C(Nc1cc(Cl)ccc1OCCCCO)c1cnn2cccnc12", "note": "[Example 87, Pyrazolo[1,5-alpha]pyrimidine-3-carboxylic acid [5-chloro-2-(4-hydroxy-butoxy)-phenyl]-amide]", "pIC50": 6.36},
      {"smiles": "O=C(Nc1cc2cccnc2cc1OC1CCNC1)c1csc2cncnc12", "note": "(centres unmarked) [Example 88, Thieno[3,2-d]pyrimidine-7-carboxylic acid [7-(pyrrolidin-3-yloxy)-quinolin-6-yl]-amide hydrochloride]", "pIC50": 6.34},
      {"smiles": "COc1cc(C(=O)Nc2ccccc2)ccc1NC(=O)c1cnn2cccnc12", "note": "[Example 89, Pyrazolo[1,5-alpha]pyrimidine-3-carboxylic acid (2-methoxy-4-phenylcarbamoyl-phenyl)-amide]", "pIC50": 6.34},
      {"smiles": "O=C(Nc1cc(Cl)ccc1N1CCCC(O)C1)c1cnn2cccnc12", "note": "(stereo not drawn) [Example 91, Pyrazolo[1,5-alpha]pyrimidine-3-carboxylic acid [5-chloro-2-(3-hydroxy-piperidin-1-yl)-phenyl]-amide]", "pIC50": 6.32},
      {"smiles": "O=C(Nc1cc(Cl)ccc1OC1CCNCC1)c1cnn2cccnc12", "note": "[Example 92, Pyrazolo[1,5-alpha]pyrimidine-3-carboxylic acid [5-chloro-2-(piperidin-4-yloxy)-phenyl]-amide hydrochloride]", "pIC50": 6.32},
      {"smiles": "O=C(Nc1cc(Cl)ccc1-c1ccc(O)cc1)c1cnn2cccnc12", "note": "[Example 94, Pyrazolo[1,5-alpha]pyrimidine-3-carboxylic acid (4-chloro-4′-hydroxy-biphenyl-2-yl)-amide]", "pIC50": 6.32},
      {"smiles": "O=C(Nc1cc(Cl)ccc1N1CCC(O)C1)c1cnn2cccnc12", "note": "(stereo not drawn) [Example 95, Pyrazolo[1,5-alpha]pyrimidine-3-carboxylic acid [5-chloro-2-(3-hydroxy-pyrrolidin-1-yl)-phenyl]-amide]", "pIC50": 6.31},
      {"smiles": "O=C(Nc1cc(Cl)ccc1OCCC(O)CO)c1cnn2cccnc12", "note": "(stereo not drawn) [Example 96, Pyrazolo[1,5-alpha]pyrimidine-3-carboxylic acid [5-chloro-2-(3,4-dihydroxy-butoxy)-phenyl]-amide]", "pIC50": 6.30},
      {"smiles": "CN1CCN(c2ccc(Cl)cc2NC(=O)c2cnn3cccnc23)CC1", "note": "[Example 97, Pyrazolo[1,5-alpha]pyrimidine-3-carboxylic acid [5-chloro-2-(4-methyl-piperazin-1-yl)-phenyl]-amide]", "pIC50": 6.29},
      {"smiles": "O=C(Nc1cc(Cl)ccc1OCc1cnco1)c1cnn2cccnc12", "note": "[Example 98, Pyrazolo[1,5-alpha]pyrimidine-3-carboxylic acid [5-chloro-2-(oxazol-5-ylmethoxy)-phenyl]-amide]", "pIC50": 6.29},
      {"smiles": "O=C(Nc1cc(Cl)ccc1N1CCOCC1)c1cnn2cccnc12", "note": "[Example 99, Pyrazolo[1,5-alpha]pyrimidine-3-carboxylic acid (5-chloro-2-morpholin-4-yl-phenyl)-amide]", "pIC50": 6.28},
      {"smiles": "O=C(Nc1cc(Cl)ccc1-c1ccccc1)c1cnn2cccnc12", "note": "[Example 100, Pyrazolo[1,5-alpha]pyrimidine-3-carboxylic acid (4-chloro-biphenyl-2-yl)-amide]", "pIC50": 6.27},
      {"smiles": "NCC1CCN(c2ccc(Cl)cc2NC(=O)c2cnn3cccnc23)C1", "note": "(stereo not drawn) [Example 101, Pyrazolo[1,5-alpha]pyrimidine-3-carboxylic acid [2-(3-aminomethyl-pyrrolidin-1-yl)-5-chloro-phenyl]-amide]", "pIC50": 6.25},
      {"smiles": "COc1cc2cc[nH]c2cc1NC(=O)c1csc2cncnc12", "note": "[Example 102, Thieno[3,2-d]pyrimidine-7-carboxylic acid (5-methoxy-1H-indol-6-yl)-amide]", "pIC50": 6.22},
      {"smiles": "O=C(Nc1cc(Cl)ccc1OC1CCCC(O)C1)c1cnn2cccnc12", "note": "(stereo not drawn) [Example 103, Pyrazolo[1,5-alpha]pyrimidine-3-carboxylic acid [5-chloro-2-(3-hydroxy-cyclohexyloxy)-phenyl]-amide]", "pIC50": 6.22},
      {"smiles": "COc1cc2ccccc2cc1NC(=O)c1cnn2cccnc12", "note": "[Example 104, Pyrazolo[1,5-alpha]pyrimidine-3-carboxylic acid (3-methoxy-naphthalen-2-yl)-amide]", "pIC50": 6.21},
      {"smiles": "COc1cc(C(=O)NCCCO)ccc1NC(=O)c1cnn2cccnc12", "note": "[Example 105, Pyrazolo[1,5-alpha]pyrimidine-3-carboxylic acid [4-(3-hydroxy-propylcarbamoyl)-2-methoxy-phenyl]-amide]", "pIC50": 6.19},
      {"smiles": "O=C(Nc1cc(Cl)ccc1N1CCC(CO)C1)c1cnn2cccnc12", "note": "(stereo not drawn) [Example 106, Pyrazolo[1,5-alpha]pyrimidine-3-carboxylic acid [5-chloro-2-(3-hydroxymethyl-pyrrolidin-1-yl)-phenyl]-amide]", "pIC50": 6.19},
      {"smiles": "O=C(Nc1cc(Cl)ccc1OC(F)F)c1cnn2cccnc12", "note": "[Example 107, Pyrazolo[1,5-alpha]pyrimidine-3-carboxylic acid (5-chloro-2-difluoromethoxy-phenyl)-amide]", "pIC50": 6.14},
      {"smiles": "CN(C)c1ccc(Cl)cc1NC(=O)c1cnn2cccnc12", "note": "[Example 108, Pyrazolo[1,5-alpha]pyrimidine-3-carboxylic acid (5-chloro-2-dimethylamino-phenyl)-amide]", "pIC50": 6.13},
      {"smiles": "NC1CCN(c2ccc(Cl)cc2NC(=O)c2cnn3cccnc23)C1", "note": "(stereo not drawn) [Example 109, Pyrazolo[1,5-alpha]pyrimidine-3-carboxylic acid [2-(3-amino-pyrrolidin-1-yl)-5-chloro-phenyl]-amide]", "pIC50": 6.12},
      {"smiles": "COc1cc2cc[nH]c2cc1NC(=O)c1cnn2cccnc12", "note": "[Example 110, Pyrazolo[1,5-alpha]pyrimidine-3-carboxylic acid (5-methoxy-1H-indol-6-yl)-amide]", "pIC50": 6.10},
      {"smiles": "CSc1ccc(Cl)cc1NC(=O)c1cnn2cccnc12", "note": "[Example 111, Pyrazolo[1,5-alpha]pyrimidine-3-carboxylic acid (5-chloro-2-methylsulfanyl-phenyl)-amide]", "pIC50": 6.10},
      {"smiles": "O=C(Nc1cc(Cl)ccc1C1CCCCC1)c1cnn2cccnc12", "note": "[Example 112, Pyrazolo[1,5-alpha]pyrimidine-3-carboxylic acid (5-chloro-2-cyclohexyl-phenyl)-amide]", "pIC50": 6.10},
      {"smiles": "COc1cc(C(=O)NCCCO)ccc1NC(=O)c1csc2cncnc12", "note": "[Example 113, Thieno[3,2-d]pyrimidine-7-carboxylic acid [4-(3-hydroxy-propylcarbamoyl)-2-methoxy-phenyl]-amide]", "pIC50": 6.08},
      {"smiles": "O=C(Nc1cccc(NCCO)c1N1CCCCC1)c1cnn2cccnc12", "note": "[Example 114, Pyrazolo[1,{tildeover (5)}alpha] pyrimidine-3-carboxylic acid [3-(2-hydroxy-ethylamino)-2-piperidin-1-yl-phenyl]-amide]", "pIC50": 5.99},
      {"smiles": "Cc1ncoc1COc1ccc(Cl)cc1NC(=O)c1csc2cncnc12", "note": "[Example 115, Thieno[3,2-d]pyrimidine-7-carboxylic acid [5-chloro-2-(4-methyl-oxazol-5-ylmethoxy)-phenyl]-amide]", "pIC50": 5.98}
    ]}
  ]
}
